Values joined by “and” are separate entries in the source; they are usually repeats but may differ in a detail not shown here. Identical values can stand only once.
What was measured:
Type in all cases: cell-based
[1] = test system: Circadian signaling pathway; assay: PAS score of Circadian pathway in late-passage human fibroblasts cultured with putative geroprotectors; conditions: 48 hours, aged human fibroblasts (aliquot C) vs aliquot A control
Experimental: (§1) PASp=ΣNIInp×ARRnp×BTIFn×lg(CNRn)
(§2) The culture of human fibroblasts was isolated from skin of a healthy adult donor and cultured for five passages in DMEM/F12 medium supplemented by 10% FBS. The tissue sample was obtained with the written consent of a donor according to EU and local ethical guidelines. An aliquot containing ˜10 million cells was frozen in liquid nitrogen (aliquot A), whereas the remaining part of the cell culture was grown for 20 additional passages in the same medium. The cells were then harvested and stored in liquid nitrogen (aliquot B). Aliquot B cells were then cultured for two additional passages and then cultured for 48 hours in the presence of four putative geroprotector drugs. The resulting cells were harvested (aliquot C). The transcriptomes of the aliquots A, B and C were investigated with the Illumina HT12 v4 gene expression microarrays (Illumina, USA). In such a way we profiled expression of the genes implicated in the functioning of the following ten signaling pathways: AHR, AKT, Circadian, DNA repair mechanisms, EGFR, ERK signaling, Estrogen pathway, FLT3, Growth hormone, Hedgehog.
(§3) Zero PAS value means identical signaling pathway activation pattern in the older (aliquots B and C) and younger (aliquot A) fibroblasts.

FLT3 signaling pathway = assay: PAS score of FLT3 pathway in late-passage human fibroblasts cultured with putative geroprotectors; parameters: unit of the concentration uncertain; conditions: 48 hours, aged human fibroblasts (aliquot C) vs aliquot A control
Experimental: as §1, §2, §3

[2] = test system: Hedgehog signaling pathway; assay: PAS score of Hedgehog pathway in late-passage human fibroblasts cultured with putative geroprotectors; parameters: unit of the concentration uncertain; conditions: 48 hours, aged human fibroblasts (aliquot C) vs aliquot A control
Experimental: as §1
The culture of human fibroblasts was isolated from skin of a healthy adult donor and cultured for five passages in DMEM/F12 medium supplemented by 10% FBS. The tissue sample was obtained with the written consent of a donor according to EU and local ethical guidelines. An aliquot containing ˜10 million cells was frozen in liquid nitrogen (aliquot A), whereas the remaining part of the cell culture was grown for 20 additional passages in the same medium. The cells were then harvested and stored in liquid nitrogen (aliquot B). Aliquot B cells were then cultured for two additional passages and then cultured for 48 hours in the presence of four putative geroprotector drugs. The resulting cells were harvested (aliquot C). The transcriptomes of the aliquots A, B and C were investigated with the Illumina HT12 v4 gene expression microarrays (Illumina, USA). In such a way we profiled expression of the genes implicated in the functioning of the following ten signaling pathways: AHR, AKT, Circadian, DNA repair mechanisms, EGFR, ERK signaling, Estrogen pathway, FLT3, Growth hormone, Hedgehog. The information about pathway configuration and functional roles of the individual genes was taken from the public database provided by SABiosciences (SABiosciences, a Qiagen company. Using Student statistical criterion and a threshold p-value <0.05, we identified a list of the differential genes and calculated for them CNRn values. The set of gene expression data corresponding to the “aliquot A” group of samples was taken as the control. The data were processed with the algorithm for the calculation of PAS, and the following pathway activation data were obtained (Table 9).
Zero PAS value means identical signaling pathway activation pattern in the older (aliquots B and C) and younger (aliquot A) fibroblasts. […] The present invention proposes ranking of the geroprotector drugs according to their ability to compensate aging-related differences in signaling pathway activation reflected by the PAS values.

human skin fibroblasts = assay: Reversion of PAS patterns to the younger state, ranking of geroprotectors
Experimental: (§4) The culture of human fibroblasts was isolated from skin of a healthy adult donor and cultured for five passages in DMEM/F12 medium supplemented by 10% FBS. The tissue sample was obtained with the written consent of a donor according to EU and local ethical guidelines. An aliquot containing ˜10 million cells was frozen in liquid nitrogen (aliquot A), whereas the remaining part of the cell culture was grown for 20 additional passages in the same medium. The cells were then harvested and stored in liquid nitrogen (aliquot B). Aliquot B cells were then cultured for two additional passages and then cultured for 48 hours in the presence of four putative geroprotector drugs. The resulting cells were harvested (aliquot C). […] The information about pathway configuration and functional roles of the individual genes was taken from the public database provided by SABiosciences (SABiosciences, a Qiagen company. Using Student statistical criterion and a threshold p-value <0.05, we identified a list of the differential genes and calculated for them CNRn values. The set of gene expression data corresponding to the “aliquot A” group of samples was taken as the control. The data were processed with the algorithm for the calculation of PAS, and the following pathway activation data were obtained (Table 9). […]

AHR signaling pathway = assay: PAS score of AHR pathway in late-passage human fibroblasts cultured with putative geroprotectors; conditions: 48 hours, aged human fibroblasts (aliquot C) vs aliquot A control
Experimental: as §1, §2, §3

DNA repair mechanisms = assay: PAS score of DNA repair pathway in late-passage human fibroblasts cultured with putative geroprotectors; conditions: 1 mM, 48 hours, aged human fibroblasts (aliquot C) vs aliquot A control
Experimental: as §1, §4

[3] = test system: Growth hormone (GH) signaling pathway; assay: PAS score of Growth hormone pathway in late-passage human fibroblasts cultured with putative geroprotectors; conditions: 1 mM, 48 hours, aged human fibroblasts (aliquot C) vs aliquot A control
Experimental: as §1, §4

Oc1ccc(C=Cc2cc(O)cc(O)c2)cc1 [Resveratrol]
PAS Circadian ([1]; 1 mM): 4
PAS FLT3 (FLT3 signaling pathway; 1 (unit uncertain)): 2
PAS Hedgehog ([2]; 1 (unit uncertain)): 9 and 11
pathways whose PAS patterns were better reverted to the younger state (human skin fibroblasts; 1 mM, of the ten pathways tested): 7/10
ranking as geroprotector among the four tested (human skin fibroblasts; combined experimental and biomathematical system): best putative geroprotector drug

O=C(O)c1nn(Cc2ccc(Cl)cc2Cl)c2ccccc12 [Lonidamine]
PAS AHR (AHR signaling pathway; 5 mM): 2 and 4
PAS Circadian ([1]; 5 mM): 5 and 7
PAS FLT3 (FLT3 signaling pathway; 5 (unit uncertain)): −1
PAS Hedgehog ([2]; 5 (unit uncertain)): 17 and 22

NCCCCNCCCN [Spermidine]
PAS AHR (AHR signaling pathway; 1 mM): 3 and 2
PAS Circadian ([1]; 1 mM): 5 and 8
PAS DNA repair (DNA repair mechanisms): −10
PAS GH [3]: −9
PAS Hedgehog ([2]; 1 (unit uncertain)): 17 and 18

COC[C@H]1OC(=O)c2coc3c2[C@@]1(C)C1=C(C3=O)[C@@H]2CCC(=O)[C@@]2(C)C[C@H]1OC(C)=O [Wortmannin]
PAS AHR (AHR signaling pathway; 0.5 mM): 1 and 2
PAS Circadian ([1]; 0.5 mM): 6 and 5
PAS Hedgehog ([2]; 0.5 (unit uncertain)): 12 and 10

Source: US20170293715A1, “SYSTEMS, METHODS AND SOFTWARE FOR RANKING POTENTIAL GEROPROTECTIVE DRUGS” (Insilico Medicine, Inc., priority 2014, published 2017)
